The results in this text go back to patent US20120157466A1, “HETEROCYCLIC COMPOUNDS WITH CXCR3 ANTAGONIST ACTIVITY” (priority 2007, published 2012).

Read-outs that look alike come from different tables or passages of the source. Bounds are passed on as bounds.

As usually defined, the IC50 is the concentration that gives 50% inhibition.

The assay has as its target T1, human CXCR3 (N-delta 4) (Homo sapiens, UniProt P49682).
T1 construct: CD8 leader (N); Flag tag; expressed in transfected cells; membrane preparation
T1 sequence (P49682 5-368 limits assumed): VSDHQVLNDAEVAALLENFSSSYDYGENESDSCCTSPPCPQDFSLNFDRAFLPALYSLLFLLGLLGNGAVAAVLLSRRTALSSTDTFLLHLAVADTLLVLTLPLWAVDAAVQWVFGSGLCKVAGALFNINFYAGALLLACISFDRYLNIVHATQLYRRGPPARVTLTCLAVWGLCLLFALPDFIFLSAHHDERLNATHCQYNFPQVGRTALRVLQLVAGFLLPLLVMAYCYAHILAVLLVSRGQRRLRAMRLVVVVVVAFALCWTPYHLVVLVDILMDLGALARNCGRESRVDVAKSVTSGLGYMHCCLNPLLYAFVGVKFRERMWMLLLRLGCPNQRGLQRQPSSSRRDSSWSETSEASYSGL
The assay can be described thus: Human CXCR3 (N-delta 4) Scintillation Proximity Assay (SPA), [125I] IP-10 binding. The source says:
The inventive compounds can readily be evaluated to determine activity at The CXCR3 receptors by known methods, such as, for example, Development of Human CXCR3 (N-delta 4) Binding Assay.
Cloning and Expression of Human CXCR3 (N-delta 4):
The DNA encoding human CXCR3 was cloned by PCR using human genomic DNA (Promega, Madison, Wis.) as a template. The PCR primers were designed based on the published sequence of human orphan receptor GPR9 (1) with incorporated restriction sites, a Kozak consensus sequence, CD8 leader and Flag tag. The PCR product was subcloned into the mammalian expression vector pME18Sneo, a derivative of the SR-alpha expression vector (designated as pME18Sneo-hCXCR3 (N-delta 4).
IL-3-dependent mouse pro-B cells Ba/F3 were transfected by electroporation in 0.4 ml Dulbecco's PBS containing 4×10^6 cells with 20 μg of pME18Sneo-hCXCR3 (N-delta 4) plasmid DNA. Cells were pulsed at 400 Volts, 100 OHMs, 960 μFd. The transfected cells were under selection with 1 mg/ml G418 (Life Technologies, Gaithersburg, Md.). G418-resistant Ba/F3 clones were screened for CXCR3 expression by specific binding of [^125I] IP-10 (NEN Life Science Products, Boston, Mass.).
Preparation of Ba/F3-hCXCR3 (N-delta 4) Membranes
Ba/F3 cells expressing human CXCR3 (N-delta 4) were pelleted and resuspended in the lysis buffer containing 10 mM HEPES, pH 7.5 and Complete protease inhibitors (1 tablet per 100 ml) (Boehringer Mannheim, Indianapolis, Ind.) at a cell density of 20×10^6 cells per ml. After 5 minutes incubation on ice, cells were transferred to 4639 cell disruption bomb (Parr Instrument, Moline, Ill.) and applied with 1,500 psi of nitrogen for 30 minutes on ice. Large cellular debris was removed by centrifugation at 1,000×g. Cell membrane in the supernatant was sedimented at 100,000×g. The membrane was resuspended in the lysis buffer supplemented with 10% sucrose and stored at −80° C. Total protein concentration of the membrane was determined by BCA method from Pierce (Rockford, Ill.).
Human CXCR3 (N-delta 4) Scintillation Proximity Assay (SPA)
For each assay point, 2 μg of membrane was preincubated for 1 hr with 300 μg wheat germ agglutinin (WGA) coated SPA beads (Amersham, Arlington Heights, Ill.) in the binding buffer (50 mM HEPES, 1 mM CaCl2, 5 mM MgCl2, 125 mM NaCl, 0.002% NaN3, 1.0% BSA) at room temperature. The beads were spun down, washed once, resuspended in the binding buffer and transferred to a 96-well Isoplate (Wallac, Gaithersburg, Md.). 25 pM of [^125I] IP-10 with tested compounds in a series of titration were added to start the reaction. After 3 hr reaction at room temperature, the amount of [^125I] IP-10 bound to the SPA beads was determined with a Wallac 1450 Microbeta counter.
A general note: In a scintillation proximity assay essentially only radioactivity close to the scintillant gives light.

Where [1] appears, read: human CXCR3, Ba/F3-hCXCR3 (N-delta 4) membranes, 25 pM [125I] IP-10, read-out: IC50 rating (human).
The mark [2] stands for this setting: numerical IC50 values of representative compounds, read-out: IC50.

Consider `CC[C@H]1CN(c2nc3ncccc3c(=O)n2C2CC2)CCN1C1CCN(Cc2ccc(Cl)cc2F)CC1` [Compound 17], for which the IC50 by setting is: under setting [1], below 25 nM; under setting [2], 2.5 nM. On to `CC[C@H]1CN(c2nc3ncccc3c(=O)n2C)CCN1C1CCN(C(=O)c2ccc(Cl)nc2N)CC1` [Compound 19], for which the IC50 under setting [1] was above 100 nM. The same measure, in the same setting: under `CC[C@H]1CN(c2nc3ncccc3c(=O)n2C2CC2)CCN1C1CCN(C(=O)c2ccc(Cl)nc2N)CC1` [Compound 20] stands 25 to 100 nM; under `CC[C@H]1CN(c2nc3ncccc3c(=O)n2C)CCN1C1CCN(Cc2ccc(OC(F)(F)F)cc2)CC1` [Compound 22], below 25 nM. Take `CC[C@H]1CN(c2nc3ncccc3c(=O)n2C)CCN1C1CCN(C(=O)c2ccc(Cl)cc2)CC1` [Compound 9]: under setting [1], the IC50 is 25 to 100 nM. `CC[C@H]1CN(c2nc3ncccc3c(=O)n2C)[C@H](C)CN1C1CCN(C(=O)c2ccc(Cl)cc2)CC1` [Compound 23]: under setting [1], the half-inhibitory concentration (IC50) is above 100 nM.

`C[C@H]1CN(c2nccc(C(F)(F)F)n2)CCN1C1CCN(Cc2ccc(Cl)cc2)CC1` [Compound 5]: the IC50 under setting [1] was above 100 nM.

Take `O=C(NCc1ccc(F)c(F)c1)c1cnc(N2CCN(C3CCN(Cc4ccc(Cl)cc4)CC3)CC2)nc1C(F)(F)F` [Compound 2]: the IC50 under setting [1] was above 100 nM. In the case of `CC[C@H]1CN(c2nc3ncccc3c(=O)n2C2CC2)CCN1C1CCN(Cc2ccc(C(F)(F)F)cc2)CC1` [Compound 14], the IC50 under setting [1] was below 25 nM and the IC50 under setting [2] stood at 5.6 nM. As to `CC[C@H]1CN(c2nc3ccccc3n2C)CCN1C1CCN(Cc2ccc(Cl)cc2F)CC1` [Compound 10], under setting [1], the IC50 was above 100 nM. On to `CC[C@H]1CN(c2nc3ncccc3c(=O)n2C2CC2)CCN1C1CCN(Cc2ccc(OC(F)(F)F)cc2)CC1` [Compound 13], for which the IC50 was below 25 nM under setting [1] and 2.8 nM under setting [2]. For `CC[C@H]1CN(c2nc(Cl)c3nc[nH]c3n2)CCN1C1CCN(Cc2ccc(Cl)cc2F)CC1` [Compound 7], the IC50 under setting [1] was above 100 nM. Still for that read-out and setting: under `CCNC(=O)c1cc(C)nc(N2CCN(C3CCN(Cc4ccc(Cl)cc4)CC3)[C@@H](CC)C2)n1` [Compound 8] stands above 100 nM. In the case of `CC[C@H]1CN(c2nc3ncccc3c(=O)n2C2CC2)CCN1C1CCN(Cc2ccc(Cl)c(F)c2)CC1` [Compound 15], the IC50 runs as follows: under setting [1], below 25 nM; under setting [2], 1.8 nM. In the case of `CC[C@H]1CN(c2nc3ncccc3c(=O)n2C2CC2)CCN1C1CCN(Cc2ccc(F)c(F)c2)CC1` [Compound 16], the IC50 under setting [1] is below 25 nM. As to `CC[C@H]1CN(c2nc3ncccc3c(=O)n2C2CC2)CCN1C1CCN(Cc2ccc(Cl)cc2)CC1` [Compound 12], the IC50 by setting is: under setting [1], below 25 nM; under setting [2], 1.9 nM. With `CC[C@H]1CN(c2nc3ncccc3c(=O)n2C2CC2)CCN1C1CCN(Cc2ccc(C#N)cc2)CC1` [Compound 18], under setting [1], the IC50 was below 25 nM. Consider `CC[C@H]1CN(c2nc3ncccc3c(=O)n2C2CC2)CCN1C1CCN(C(=O)c2ccc(Cl)cc2)CC1` [Compound 11], for which the IC50 under setting [1] was in the range of 25 to 100 nM.

In the case of `O=C(NCc1ccc(F)c(F)c1)c1cnc(N2CCN(C3CCN(C(=O)c4ccc(Cl)cc4)CC3)CC2)nc1C(F)(F)F` [Compound 3], under setting [1], the concentration for half-maximal inhibition (IC50) was above 100 nM.

As for `CC[C@H]1CN(c2nc3ncccc3c(=O)n2C)CCN1C1CCN(Cc2ccc(Cl)cc2)CC1` [Compound 21], under setting [1], the IC50 is below 25 nM.
